Test results as given in publication PMC2441954, “Phase I pharmacokinetic and pharmacodynamic study of the prenyl transferase inhibitor AZD3409 in patients with advanced cancer” (British Journal of Cancer, 2008).
Read-outs that look alike come from different tables or passages of the source.

Experiment: Plasma pharmacokinetics (LC-MS/MS, noncompartmental) in phase I patients
Assay type: in vivo, human
Conditions: for Cmax / AUC: human, plasma, oral; for AUC: read-out: AUC0−τ
Procedure: Pharmacokinetic studies were performed in all patients. Ethylenediaminetetraacetic acid blood samples were collected during the first cycle: on day 1 before the first drug intake and 0.5, 1, 2, 4, 6, 8, 12 and 24 h after administration; on days 3, 8 and 15 before the morning drug intake and 2 h after administration; and on day 22 before the morning drug intake and 0.5, 1, 2, 4, 6, 8, 12 and 24 h after administration. Samples were immediately put on ice and centrifuged at 4°C for 10 min at 1500 g. The resulting plasma was stored at −70°C until analysis. Plasma samples of the last three patients were not measured as the study was stopped before analysis.
The total plasma concentrations of AZD3409 ester and AZD3409 acid were determined by LC–MS/MS. The plasma samples were treated with dithiothreitol to reduce any disulphide bonds. The sample pretreatment was based on protein precipitation with acidic acetonitrile. Isotopically labelled analogues were used as internal standards. The method has been validated regarding selectivity, accuracy, precision and stability in human plasma. The lower limit of quantification was 3 ng ml^−1 for both AZD3409 ester and AZD3409 acid, with a 50 μl sample volume.
The following PK parameters were determined, either by direct observation or by noncompartmental analysis (WinNonlin, version 5.0.1; Pharsight, Mountain View, CA, USA): the minimal plasma concentration (Cmin), the maximal plasma concentration (Cmax), the area under the curve within one dosing interval (AUC0−τ) and total plasma clearance (Cl/F). Correlations between dose and Cmax levels and between dose and AUC0−τ were analysed on day 1 using the nonparametric Spearman's ρ (Rs) correlation test. Accumulation was tested with an exact Wilcoxon's rank paired signed test. Linear measures mixed effects models were constructed with SAS (SAS Institute Inc., Cary, NC, USA) to determine the effect of the dose on the trough plasma concentrations of both metabolites. The daily dose, time (days), gender and age were considered to be a fixed effect, and the patient variable was considered to be a random effect. Owing to the distribution of the trough plasma concentration log transformation was applied.

[1] = 500 mg once daily, day 1, dose 500 (once daily), N=3, mean (SD)
[2] = 500 mg once daily, day 22, dose 500 (once daily), N=2, absolute values
[3] = 750 mg b.i.d., day 1, dose 750 b.i.d., N=8, mean (SD)
[4] = 750 mg b.i.d., day 22, dose 750 b.i.d., N=3, mean (SD)
[5] = 1000 mg once daily, day 1, dose 1000 (once daily), N=3, mean (SD)
[6] = 1000 mg once daily, day 22, dose 1000 (once daily), N=3, mean (SD)
[7] = 1250 mg b.i.d., day 1, dose 1250 b.i.d., N=6, mean (SD)
[8] = 1250 mg b.i.d., day 22, dose 1250 b.i.d., N=4, mean (SD)
[9] = 1500 mg b.i.d., day 1, dose 1500 b.i.d., N=2, absolute values
[10] = 1750 mg b.i.d., day 1, dose 1750 b.i.d., N=4, mean (SD)
[11] = 1750 mg b.i.d., day 22, dose 1750 b.i.d., N=1

AUCester/AUCacid ratio (day 1): 2.5
Spearman correlation (Rs) between dose and AUC (day 1): 0.52
Spearman correlation (Rs) between dose and Cmax (day 1): 0.43
AUCester/AUCacid ratio (day 22): 2.0
Cl/F (day 22, dose 500 (once daily), N=2, absolute values): [263–308] l h^−1
Cl/F (day 22, dose 750 b.i.d., N=3, mean (SD)): 309 (151) l h^−1
Cl/F (day 22, dose 1000 (once daily), N=3, mean (SD)): 319 (172) l h^−1
Cl/F (day 22, dose 1250 b.i.d., N=4, mean (SD)): 474 (231) l h^−1
Cl/F (day 22, dose 1750 b.i.d., N=1): 1145 L/h
Ratio AUC0−τ day 22/day 1 (dose 500 (once daily), N=2, absolute values): [1.42–8.31]
Ratio AUC0−τ day 22/day 1 (dose 750 b.i.d., N=3, mean (SD)): 7.03 (8.46)
Ratio AUC0−τ day 22/day 1 (dose 1000 (once daily), N=3, mean (SD)): 1.54 (0.86)
Ratio AUC0−τ day 22/day 1 (dose 1250 b.i.d., N=4, mean (SD)): 1.28 (0.70)
Ratio AUC0−τ day 22/day 1 (dose 1750 b.i.d., N=1): 0.97
Cmax [1]: 82.1 ng/mL
AUC [1]: 395 ng·h/mL
Cmax [2]: 229 to 257 ng/mL
AUC [2]: 1230 to 1460 ng·h/mL
Cmax [3]: 245 ng/mL
AUC [3]: 1070 ng·h/mL
Cmax [4]: 298 ng/mL
AUC [4]: 1720 ng·h/mL
Cmax [5]: 318 ng/mL
AUC [5]: 1540 ng·h/mL
Cmax [6]: 296 ng/mL
AUC [6]: 1930 ng·h/mL
Cmax [7]: 338 ng/mL
AUC [7]: 1780 ng·h/mL
Cmax [8]: 366 ng/mL
AUC [8]: 2120 ng·h/mL
Cmax [9]: 227 to 315 ng/mL
AUC [9]: 1460 to 1630 ng·h/mL
Cmax [10]: 362 ng/mL
AUC [10]: 1690 ng·h/mL
Cmax [11]: 445 ng/mL
AUC [11]: 1100 ng·h/mL
SMILES: CSCC[C@H](NC(=O)c1cc(NC[C@@H]2C[C@H](S)CN2)ccc1CCc1ccc(F)cc1)C(=O)OC(C)C [AZD3409 ester]
